Tested on: breast cancer
Test: Retrospective clinical study of adjuvant tamoxifen treatment of breast cancer
Type: in vivo, human
Conditions: overexpression of PPARBP
Source text: In particular, elevated levels of the PPARBP gene and protein and the integrity of the telomeric hormone receptor region of the 17q21 ARCHEON, bearing THRA, NR1D1 and RARA, or its related regions on the other ARCHEONs are of importance for these therapeutic regimens. […] Overexpression of PPARBP enables activity of estrogen and progesteron receptors irrespective of a bound ligand. Therefore, the deregulation of the PPARBP results in the activity of these hormone receptors in the absence of the hormones and even in the presence of anti-hormones and thereby circumvents the anti tumor effect of anti hormonal strategies resulting in resistance of PPARBP overexpressing cells. In addition overexpression of hormone receptors other than estrogen receptor in tumor cells affects activity of estrogen or the respective anti-hormones by competition for dimerization partners, such as RXR, or transcriptional activator or repressor genes, such as CBP or NCOR. With regard to tamoxifen treatment this clearly diminishes the effect of the anti-hormone, as the pool of the transcriptional cofactors is reduced for the classical mode of action of tamoxifen within the nucleus.

CC/C(=C(\c1ccccc1)c1ccc(OCCN(C)C)cc1)c1ccccc1 [tamoxifen]
overall survival of patients receiving adjuvant tamoxifen: has impact on the overall survival

— patent US20080113344A1, “Methods and Compositions for the Response Prediction of Malignant Neoplasia to Treatment” (priority 2003, published 2008)
